These results are taken from US9549552B2, “Active compound combinations having insecticidal properties” (BAYER CROPSCIENCE AKTIENGESELLSCHAFT, priority 2013, dated 2017).

Holding throughout (assay type): in vivo
Common to all, as to conditions: mortality

Test [1] relates to fall armyworm larvae (Spodoptera frugiperda). The test can be described thus: Spodoptera frugiperda spray test (Example C3, maize leaf sections). The protocol:
To produce a suitable preparation of the active compound, 1 part by weight of active compound is mixed with the stated amount of solvent and emulsifier, and the concentrate is diluted with emulsifier-containing water to the desired concentration. To produce a suitable preparation of a spore suspension the spores are diluted with emulsifier-containing water to the desired concentration.
(§1) Maize (Zea mays) leaf sections are sprayed with a preparation of the active ingredient of the desired concentration. Once dry, the leaf sections are infested with fall armyworm larvae (Spodoptera frugiperda).
(§2) After the specified period of time, mortality in % is determined 100% means all caterpillars have been killed and 0% means none of the caterpillars have been killed. The mortality values determined thus are recalculated using the Colby-formula (see sheet 1).

The test system of test [2] is mustard beetle larvae (Phaedon cochleariae). The test can be described thus: Phaedon cochleariae spray test (Example A1, Chinese cabbage leaf disks). The protocol:
(§3) To produce a suitable preparation of active compound, 1 part by weight of active compound is mixed with the stated amount of solvent and emulsifier, and the concentrate is diluted with emulsifier-containing water to the desired concentration. To produce a suitable preparation of a spore suspension the spores are diluted with emulsifier-containing water to the desired concentration.
Chinese cabbage (Brassica pekinensis) leaf-disks are sprayed with a preparation of the active ingredient of the desired concentration. Once dry, the leaf disks are infested with mustard beetle larvae (Phaedon cochleariae).
(§4) After the specified period of time, mortality in % is determined 100% means all beetle larvae have been killed and 0% means none of the beetle larvae have been killed. The mortality values determined thus are recalculated using the Colby-formula (see sheet 1).

Test [3] has the same test system. The test can be described thus: Phaedon cochleariae spray test (Example A3, Chinese cabbage leaf disks). The method, then: (§5) To produce a suitable preparation of active compound, 1 part by weight of active compound is mixed with the stated amount of solvents and is diluted with water, containing an emulsifier concentration of 1000 ppm, to the desired concentration. Further test concentrations are prepared by dilution with emulsifier containing water.
Chinese cabbage (Brassica pekinensis) leaf disks are sprayed with a preparation of the active ingredient of the desired concentration. Once dry, the leaf disks are infested with mustard beetle larvae (Phaedon cochleariae).
as §4

In test [4] the test system is two spotted spidermite (Tetranychus urticae). The test can be described thus: Tetranychus urticae spray test, OP-resistant (Example B, French beans). The method, then:
as §3
French beans (Phaseolus vulgaris) which are heavily infested with all stages of the two spotted spidermite (Tetranychus urticae), are sprayed with a preparation of the active ingredient of the desired concentration.
After the specified period of time, mortality in % is determined 100% means all spider mites have been killed and 0% means none of the spider mites have been killed. The mortality values determined thus are recalculated using the Colby-formula (see sheet 1).

The subject of test [5] is caterpillars of the fall army worm (Spodoptera frugiperda). As to the kind of experiment: Spodoptera frugiperda spray test (Example C1, cotton leaves). The protocol: (§6) Solvent: 7 parts by weight of dimethylformamide
(§7) Emulsifier: alkylaryl polyglycol ether
To produce a suitable preparation of active compound, 1 part by weight of active compound is mixed with the stated amount of solvent and is diluted with water, containing an emulsifier concentration of 1000 ppm, to the desired concentration. Further test concentrations are prepared by dilution with emulsifier containing water Ammonium salt and/or penetration enhancer in a dosage of 1000 ppm are added if necessary.
Cotton leaves (Gossypium hirsutum) are treated by being sprayed with the preparation of the active compound of the desired concentration and are infested with caterpillars of the fall army worm (Spodoptera frugiperda).
After the specified period of time mortality in % is determined. 100% means all the caterpillars have been killed and 0% means none of the caterpillars have been killed. The mortality values determined thus are recalculated using the Colby-formula (see sheet 1).

For test [6], the system named is fall armyworm larvae (Spodoptera frugiperda). As to the kind of experiment: Spodoptera frugiperda spray test (Example C2, maize leaf sections). The protocol:
as §5, §1, §2

The test system of test [7] is mustard beetle larvae (Phaedon cochleariae). As to the kind of experiment: Phaedon cochleariae spray test (Example A2, cabbage leaves). The protocol:
as §6, §7
To produce a suitable preparation of active compound, 1 part by weight of active compound is mixed with the stated amount of solvent and is diluted with water, containing an emulsifier concentration of 1000 ppm, to the desired concentration. Further test concentrations are prepared by dilution with emulsifier containing water Ammonium salt and/or penetration enhancer in a dosage of 1000 ppm are added to the desired concentration if necessary.
Cabbage leaves (Brassica oleracea) are treated by being sprayed with the preparation of the active compound of the desired concentration and are infested with mustard beetle larvae (Phaedon cochleariae).
After the specified period of time mortality in % is determined. 100% means all the beetle larvae have been killed and 0% means none of the beetle larvae have been killed. The mortality values determined thus are recalculated using the Colby-formula (see sheet 1).

Molecules are shown by their SMILES.

For the compound `Cc1cc(C(F)(C(F)(F)F)C(F)(F)F)ccc1NC(=O)c1cccc(Cl)c1C(=O)NC(C)(C)C#N` [(I-5)], the “Efficacy in % after 6 d” value in test [1] (0.25 g ai/ha) was 0%; in test [1] (3 g ai/ha), 33%; in test [2] (4 g ai/ha), 0%; in test [3] (2 g ai/ha) it was 0%; in test [3] (4 g ai/ha) it was 0%; in test [4] (2 g ai/ha), 0%. The “Efficacy in % after 6 d” value in test [4] (4 g ai/ha) was found to be 0%; in test [4] (10 g ai/ha) it was 0%; in test [6] (1 g ai/ha), 33%. Besides, the “Efficacy in % after 2 d” value in test [3] (4 g ai/ha) is reported as 0%; in test [5] (0.04 ppm) it was 0%; in test [5] (0.08 ppm), 10%; in test [6] (1 g ai/ha), 0%; in test [7] (0.8 ppm), 0%. For the same compound, the figures for the “Efficacy in % after 3 d” value in test [5] (0.04 ppm) and in test [5] (0.08 ppm) were 0% and 20%, respectively. Moreover, the “Efficacy in % after 1 d” value in test [7] (1.6 ppm) is given as 0%.
As to `CCOCn1c(-c2ccc(Cl)cc2)c(C#N)c(Br)c1C(F)(F)F` [Chlorfenapyr], the “Efficacy in % after 6 d” value in test [3] (4 g ai/ha) amounted to 0%. In test [5] (0.8 ppm), the “Efficacy in % after 3 d” value was 0%. The “Efficacy in % after 2 d” value worked out at 0% in test [5] (1.6 ppm) and 20% in test [7] (4 ppm). In addition, the “Efficacy in % after 1 d” value in test [7] (8 ppm) worked out at 5%.
With `O=C(NC(=O)c1c(F)cccc1F)Nc1cc(Cl)c(Oc2ncc(C(F)(F)F)cc2Cl)c(Cl)c1` [Chlorfluazuron], the “Efficacy in % after 6 d” value in test [3] (8 g ai/ha) and in test [6] (2 g ai/ha) was 0% throughout. For the same compound, the “Efficacy in % after 2 d” value in test [5] (0.4 ppm) and in test [6] (2 g ai/ha) was 0% throughout. The “Efficacy in % after 3 d” value in test [5] (0.4 ppm) stood at 30%.
For `COC(=O)N(C(=O)N1CO[C@@]2(C(=O)OC)Cc3cc(Cl)ccc3C2=N1)c1ccc(OC(F)(F)F)cc1` [Indoxacarb], the “Efficacy in % after 6 d” value in test [3] (4 g ai/ha) amounted to 0%; in test [3] (8 g ai/ha), 50%; in test [6] (0.1 g ai/ha), 0%. In addition, the “Efficacy in % after 2 d” value in test [3] (8 g ai/ha) is 50%; in test [5] (0.2 ppm), 10%; in test [6] (0.1 g ai/ha), 0%. Besides, the “Efficacy in % after 3 d” value in test [5] (0.2 ppm) is 20%.
As to `CCOC(=O)OC1=C(c2cc(C)ccc2C)C(=O)N[C@]12CC[C@@H](OC)CC2` [Spirotetramat], the “Efficacy in % after 6 d” value in test [1] (15 g ai/ha) amounted to 0%; in test [2] (0.8 g ai/ha) it was 0%; in test [4] (0.8 g ai/ha) it was 30%; in test [4] (2 g ai/ha), 20%.
